Results: patent publication US5830902A, “Quinuclidine derivative having tricyclic hetero condensed ring” (Yamanouchi Pharmaceutical Co., Ltd., priority 1995, dated 1998)
Structures can show the parent of a compound that is named as a salt. Where two headings read alike, the source gives them in different places.

Legend:
[1] = target: T1, human squalene synthase (Homo sapiens, UniProt P37268); test: Test on human squalene synthase inhibition (HepG2 microsomal fraction); format: biochemical
T1 construct: endogenous in cells; host or cells: HepG2 human hepatoma cells (microsomal fraction)
T1 sequence (P37268 1-417): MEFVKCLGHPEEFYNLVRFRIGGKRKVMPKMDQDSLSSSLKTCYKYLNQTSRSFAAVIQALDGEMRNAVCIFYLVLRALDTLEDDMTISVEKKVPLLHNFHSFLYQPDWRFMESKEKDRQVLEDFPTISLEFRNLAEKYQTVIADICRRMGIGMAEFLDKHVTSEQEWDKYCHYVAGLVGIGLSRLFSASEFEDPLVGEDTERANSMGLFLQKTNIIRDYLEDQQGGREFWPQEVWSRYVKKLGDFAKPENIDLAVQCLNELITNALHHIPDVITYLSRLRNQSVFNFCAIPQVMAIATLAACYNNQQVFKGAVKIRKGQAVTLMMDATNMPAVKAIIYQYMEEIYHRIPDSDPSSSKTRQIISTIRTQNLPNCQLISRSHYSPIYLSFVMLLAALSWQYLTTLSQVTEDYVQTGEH
Experimental: A. Test on human squalene synthase inhibition
(1) Preparation of squalene synthase from human hepatoma cells
Human hepatoma cells (HepG2 cells) were cultured using DMEM containing 10% FBS until a single layer was formed, and then the medium was replaced by DMEM supplemented with 10% human lipoprotein deficient serum (LPDS) to carry out 24 hours of culturing. The cells were washed twice with PBS, collected using a Rubber Policeman and subjected to centrifugation. The resulting precipitate was homogenized in five volumes of 50 mM Hepes buffer (pH 7.5) containing 5 mM EDTA and centrifuged at 20,000×g for 15 minutes. The supernatant was again subjected to the same centrifugation. The supernatant was subjected to 1 hour of centrifugation at 100,000×g, and the microsomes obtained were suspended in the same buffer and used in the test as a HepG2 squalene synthase fraction.
(2) Measurement of squalene synthase inhibiting activity
A dimethyl sulfoxide solution of each drug to be tested was added to a solution of the squalene synthase fraction prepared above (protein 10 ng, 50 mM Hepes buffer (pH 7.5)), 11 mM NaF, 5.5 mM MgCl2, 3 mM DTT, 1 mM NADPH, 1 mM pyrophosphate and 2.5 μM ^3 H-FPP, and the mixture was adjusted to a total volume of 0.2 ml and shaken at 30° C. for 20 minutes to effect the reaction. The reaction was terminated by adding 100 μl of 20% potassium hydroxide-50% ethanol solution, and the reaction solution was heated at 65° C. for 30 minutes. The un-saponified material was extracted with petroleum ether, and 1/3 volume thereof was subjected to measurement by a liquid scintillation counter. The ^3 H radioactivity of the un-saponified material was regarded as products down stream of squalene in the cholesterol biosynthesis system, and the squalene synthase inhibiting action was calculated by comparing ^3 H radioactivities of the test group and control group.
In addition, concentration of each compound of the present invention to inhibit 50% of squalene synthase (IC50 value) was obtained by calculation.

[2] = Cholesterol lowering action in hamster; format: in vivo; conditions: male golden hamsters; 50 mg/kg in 0.5% methyl cellulose, administered by force; 5 days; blood 2 hours after final administration
Experimental: C. Cholesterol lowering action in hamster
Male golden hamsters (130 to 150 g) which have been treated by reversing night and day since 12 or more days before the commencement of administration were divided into groups 4 days before the administration in such a manner that the cholesterol value became the same among the groups. Each drug was prepared as a 0.5% methyl cellulose solution and administered by force in a dosage of 50 mg/kg. In this case, the liquid volume was 10 ml/kg.
The administration was carried out continuously for 4 days at around A.M. 11:00 under satiated condition and then on the fifth day after 16 hours of fasting. After 2 hours of the final administration, blood samples were collected from the abdominal vena cava under diethyl ether anesthesia and their cholesterol values were measured using an automatic analyzer (Hitachi 736).

[3] = tested on: enzyme located at a downstream stage of the cholesterol biosynthesis system; conditions: background art; cited from earlier work

Structure (SMILES) | IC50 ([1]; squalene synthase derived from human hepatoma (HepG2) cells, 2.5 μM 3H-FPP, 30° C., 20 minutes, read-out: IC50 value of squalene synthase inhibiting activity) [nM] | Lowering ratio (cholesterol) [2] [%] | IC50 [1] [nM] | desmosterol accumulation / cataracts [3]
F/C(COc1ccc2c(c1)[nH]c1ccccc12)=C1/CN2CCC1CC2 [Example 1, (E)-3-[2-(Carbazol-2-yloxy)-1-fluoroethylidene]quinuclidine hydrochloride] | 79 | 57 |  | 
C(/COc1ccc2c(c1)[nH]c1ccccc12)=C1/CN2CCC1CC2.Cl [Example 2, (Z)-3-[2-(Carbazol-2-yloxy)ethylidene]quinuclidine hydrochloride] |  | 39 | 59 | 
CN1c2ccccc2Sc2cc(COC3CN4CCC3CC4)ccc21.Cl (stereo not shown) [Example 17, 3-(10-Methylphenothiazin-3-ylmethoxy)quinuclidine hydrochloride] |  | 46 | 85 | 
CCN(CC)CCOc1ccc(C(O)(Cc2ccc(Cl)cc2)c2ccc(C)cc2)cc1 (stereo not shown) [triparanol] |  |  |  | accumulates desmosterol which causes the cataracts
